Results: paper PMC4996284 (CNS neuroscience & therapeutics, 2016)

Tests used:
[1] = target: T1, rat ASIC1a (Rattus norvegicus, UniProt P55926); test: cell-based
T1 sequence (P55926 1-526): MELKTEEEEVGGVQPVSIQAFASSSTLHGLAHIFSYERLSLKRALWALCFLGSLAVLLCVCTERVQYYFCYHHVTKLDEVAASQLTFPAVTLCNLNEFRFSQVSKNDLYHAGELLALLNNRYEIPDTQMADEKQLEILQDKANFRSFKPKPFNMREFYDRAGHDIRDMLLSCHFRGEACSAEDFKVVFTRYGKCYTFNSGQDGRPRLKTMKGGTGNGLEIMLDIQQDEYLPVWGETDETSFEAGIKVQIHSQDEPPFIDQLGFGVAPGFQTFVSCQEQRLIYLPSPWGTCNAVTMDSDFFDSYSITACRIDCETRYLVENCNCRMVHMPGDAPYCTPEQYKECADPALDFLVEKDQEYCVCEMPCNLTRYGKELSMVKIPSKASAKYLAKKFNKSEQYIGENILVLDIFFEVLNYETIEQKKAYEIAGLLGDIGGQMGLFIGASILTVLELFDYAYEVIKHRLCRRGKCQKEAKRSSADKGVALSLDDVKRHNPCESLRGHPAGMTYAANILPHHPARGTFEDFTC

[2] = tested on: MCAO-induced focal ischemia; test: Transient focal ischemia by middle cerebral artery occlusion; assay type: in vivo, mouse; details: mice, 1 µl of 500 µM i.c.v. 3h after MCAO (~12 µM); ACSF 49%
[3] = target: T1, rat ASIC1a; details: potency relative to amiloride

Row | SMILES | IC50 [1] | infarct volume [2] | increased inhibitory activity on ASIC1a currents in comparison with amiloride [3]
1 | CCN(c1nc(N)c(C(=O)NC(=N)N)nc1Cl)C(C)C [EIPA, 5-(N-ethyl-N-isopropyl)amiloride] | 20.7 ± 2.18 µM | – | –
2 | NC(=NCc1ccccc1)NC(=O)c1nc(Cl)c(N)nc1N [Benzamil] | 3.5 ± 0.18 µM | 33.75% | ~ 4 fold
3 | NC(=Nc1ccccc1)NC(=O)c1nc(Cl)c(N)nc1N [Phenamil] | 6.95 µM | – | ~ 2 fold
